In the supplement of paper PMC10307832:

Compound: O=C(c1cc(Cc2n[nH]c(=O)c3ccccc23)ccc1F)N1CCN(C(=O)C2CC2)CC1 [Olaparib] + Cc1nc(NC(=O)N2CCC[C@H]2C(N)=O)sc1-c1ccnc(C(C)(C)C(F)(F)F)c1 [Alpelisib] (partner 2 µM)
Test: relative viability (nuclei count vs DMSO), 5 days (fraction); higher = more cells survive
Conditions: first compound 2.53 µM
Outline: (§1)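 Values are medians from duplicate plates. Each reflects relative viability, defined as the nuclei count of treated wells over that of vehicle wells. Lung cancer cell lines in 1536-well plates were pin-tool dosed one day after seeding with one drug alone or with a fixed anchor-drug dose plus five library-drug doses (not always all listed) in √10 steps, then fixed, stained and imaged at 4× after 5 days.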

| Cell Line | relative viability |
| --- | --- |
| NCI-H647 | 1.29 |
| NCI-H650 | 1.04 |
| NCI-H727 | 0.597 |
| NCI-H838 | 0.978 |
| NCI-H1355 | 0.825 |
| NCI-H1437 | 0.929 |
| NCI-H1651 | 0.714 |
| NCI-H1666 | 0.844 |
| NCI-H1734 | 0.623 |
| NCI-H1755 | 0.898 |
| NCI-H1792 | 0.56 |
| NCI-H1915 | 0.767 |
| NCI-H1944 | 0.699 |
| NCI-H1975 | 0.692 |
| NCI-H1993 | 0.746 |
| NCI-H2085 | 0.92 |
| NCI-H2087 | 1.02 |
| NCI-H2126 | 0.712 |
| NCI-H2170 | 0.849 |
| NCI-H2347 | 0.932 |
| NCI-H2405 | 0.728 |
| NCI-H3122 | 0.867 |
| PC-3 [JPC-3] | 1.01 |
| PC-14 | 0.931 |
| RERF-LC-KJ | 0.845 |

Same assay, conditions: first compound 8 µM

| Cell Line | relative viability |
| --- | --- |
| NCI-H647 | 0.954 |
| NCI-H650 | 0.84 |
| NCI-H727 | 0.332 |
| NCI-H838 | 0.944 |
| NCI-H1355 | 0.798 |
| NCI-H1437 | 0.764 |
| NCI-H1651 | 0.356 |
| NCI-H1666 | 0.676 |
| NCI-H1734 | 0.519 |
| NCI-H1755 | 0.841 |
| NCI-H1792 | 0.506 |
| NCI-H1915 | 0.59 |
| NCI-H1944 | 0.717 |
| NCI-H1975 | 0.612 |
| NCI-H1993 | 0.742 |
| NCI-H2085 | 0.835 |
| NCI-H2087 | 0.706 |
| NCI-H2126 | 0.728 |
| NCI-H2170 | 0.718 |
| NCI-H2347 | 0.783 |
| NCI-H2405 | 0.73 |
| NCI-H3122 | 0.668 |
| PC-3 [JPC-3] | 0.989 |
| PC-14 | 0.792 |
| RERF-LC-KJ | 0.883 |

Compound: O=C(c1cc(Cc2n[nH]c(=O)c3ccccc23)ccc1F)N1CCN(C(=O)C2CC2)CC1 [Olaparib] + N=C(N)NC(=N)NCCc1ccccc1 [Phenformin] (partner 250 µM)
Test: as above
Conditions: first compound 0.08 µM
Outline: as §1

| Cell Line | relative viability |
| --- | --- |
| NCI-H647 | 0.69 |
| NCI-H650 | 0.541 |
| NCI-H727 | 0.634 |
| NCI-H838 | 0.569 |
| NCI-H1355 | 0.478 |
| NCI-H1437 | 0.301 |
| NCI-H1651 | 0.365 |
| NCI-H1666 | 0.575 |
| NCI-H1734 | 0.46 |
| NCI-H1755 | 0.62 |
| NCI-H1792 | 0.284 |
| NCI-H1915 | 0.393 |
| NCI-H1944 | 0.189 |
| NCI-H1975 | 0.437 |
| NCI-H1993 | 0.529 |
| NCI-H2085 | 0.837 |
| NCI-H2087 | 0.633 |
| NCI-H2126 | 0.615 |
| NCI-H2170 | 0.458 |
| NCI-H2347 | 0.458 |
| NCI-H2405 | 0.432 |
| NCI-H3122 | 0.425 |
| PC-3 [JPC-3] | 0.486 |
| PC-14 | 0.79 |
| RERF-LC-KJ | 0.406 |

Same assay, conditions: first compound 0.253 µM

| Cell Line | relative viability |
| --- | --- |
| NCI-H647 | 0.431 |
| NCI-H650 | 0.423 |
| NCI-H727 | 0.662 |
| NCI-H838 | 0.589 |
| NCI-H1355 | 0.433 |
| NCI-H1437 | 0.27 |
| NCI-H1651 | 0.326 |
| NCI-H1666 | 0.545 |
| NCI-H1734 | 0.325 |
| NCI-H1755 | 0.593 |
| NCI-H1792 | 0.224 |
| NCI-H1915 | 0.347 |
| NCI-H1944 | 0.184 |
| NCI-H1975 | 0.385 |
| NCI-H1993 | 0.511 |
| NCI-H2085 | 0.69 |
| NCI-H2087 | 0.42 |
| NCI-H2126 | 0.549 |
| NCI-H2170 | 0.355 |
| NCI-H2347 | 0.339 |
| NCI-H2405 | 0.373 |
| NCI-H3122 | 0.362 |
| PC-3 [JPC-3] | 0.458 |
| PC-14 | 0.384 |
| RERF-LC-KJ | 0.465 |

Same assay, conditions: first compound 2.53 µM

| Cell Line | relative viability |
| --- | --- |
| NCI-H647 | 0.518 |
| NCI-H650 | 0.473 |
| NCI-H727 | 0.556 |
| NCI-H838 | 0.641 |
| NCI-H1355 | 0.47 |
| NCI-H1437 | 0.279 |
| NCI-H1651 | 0.234 |
| NCI-H1666 | 0.502 |
| NCI-H1734 | 0.35 |
| NCI-H1755 | 0.592 |
| NCI-H1792 | 0.273 |
| NCI-H1915 | 0.344 |
| NCI-H1944 | 0.202 |
| NCI-H1975 | 0.414 |
| NCI-H1993 | 0.501 |
| NCI-H2085 | 0.682 |
| NCI-H2087 | 0.436 |
| NCI-H2126 | 0.506 |
| NCI-H2170 | 0.431 |
| NCI-H2347 | 0.313 |
| NCI-H2405 | 0.388 |
| NCI-H3122 | 0.344 |
| PC-3 [JPC-3] | 0.481 |
| PC-14 | 0.609 |
| RERF-LC-KJ | 0.433 |

Same assay, conditions: first compound 8 µM

| Cell Line | relative viability |
| --- | --- |
| NCI-H647 | 0.507 |
| NCI-H650 | 0.429 |
| NCI-H727 | 0.396 |
| NCI-H838 | 0.589 |
| NCI-H1355 | 0.432 |
| NCI-H1437 | 0.296 |
| NCI-H1651 | 0.195 |
| NCI-H1666 | 0.523 |
| NCI-H1734 | 0.372 |
| NCI-H1755 | 0.575 |
| NCI-H1792 | 0.194 |
| NCI-H1915 | 0.288 |
| NCI-H1944 | 0.192 |
| NCI-H1975 | 0.408 |
| NCI-H1993 | 0.447 |
| NCI-H2085 | 0.625 |
| NCI-H2087 | 0.383 |
| NCI-H2126 | 0.588 |
| NCI-H2170 | 0.385 |
| NCI-H2347 | 0.347 |
| NCI-H2405 | 0.426 |
| NCI-H3122 | 0.306 |
| PC-3 [JPC-3] | 0.423 |
| PC-14 | 0.519 |
| RERF-LC-KJ | 0.51 |

Compound: O=C(c1cc(Cc2n[nH]c(=O)c3ccccc23)ccc1F)N1CCN(C(=O)C2CC2)CC1 [Olaparib] + NC(=O)Nc1cc(-c2cccc(F)c2)sc1C(=O)N[C@H]1CCCNC1 [AZD7762] (partner 0.2 µM)
Test: as above
Conditions: first compound 0.08 µM
Outline: as §1

| Cell Line | relative viability |
| --- | --- |
| NCI-H647 | 0.508 |
| NCI-H650 | 1.05 |
| NCI-H727 | 0.509 |
| NCI-H838 | 1.09 |
| NCI-H1355 | 0.74 |
| NCI-H1437 | 1.19 |
| NCI-H1651 | 0.486 |
| NCI-H1666 | 0.892 |
| NCI-H1734 | 0.611 |
| NCI-H1755 | 0.452 |
| NCI-H1792 | 0.774 |
| NCI-H1915 | 0.544 |
| NCI-H1944 | 0.511 |
| NCI-H1975 | 0.793 |
| NCI-H1993 | 0.748 |
| NCI-H2085 | 1.1 |
| NCI-H2087 | 1.43 |
| NCI-H2126 | 1.08 |
| NCI-H2170 | 0.718 |
| NCI-H2347 | 0.905 |
| NCI-H2405 | 0.86 |
| NCI-H3122 | 1.03 |
| PC-3 [JPC-3] | 0.887 |
| PC-14 | 0.4 |
| RERF-LC-KJ | 1.11 |

Same assay, conditions: first compound 0.253 µM

| Cell Line | relative viability |
| --- | --- |
| NCI-H647 | 0.379 |
| NCI-H650 | 0.956 |
| NCI-H727 | 0.706 |
| NCI-H838 | 0.949 |
| NCI-H1355 | 0.749 |
| NCI-H1437 | 1.11 |
| NCI-H1651 | 0.424 |
| NCI-H1666 | 0.725 |
| NCI-H1734 | 0.49 |
| NCI-H1755 | 0.451 |
| NCI-H1792 | 0.559 |
| NCI-H1915 | 0.561 |
| NCI-H1944 | 0.729 |
| NCI-H1975 | 0.727 |
| NCI-H1993 | 0.736 |
| NCI-H2085 | 0.875 |
| NCI-H2087 | 1.15 |
| NCI-H2126 | 0.942 |
| NCI-H2170 | 0.857 |
| NCI-H2347 | 0.749 |
| NCI-H2405 | 0.741 |
| NCI-H3122 | 0.945 |
| PC-14 | 0.334 |
| RERF-LC-KJ | 0.825 |

Same assay, conditions: first compound 2.53 µM

| Cell Line | relative viability |
| --- | --- |
| NCI-H647 | 0.343 |
| NCI-H650 | 0.826 |
| NCI-H727 | 0.626 |
| NCI-H838 | 0.912 |
| NCI-H1355 | 0.714 |
| NCI-H1437 | 1.15 |
| NCI-H1651 | 0.363 |
| NCI-H1666 | 0.781 |
| NCI-H1734 | 0.441 |
| NCI-H1755 | 0.489 |
| NCI-H1792 | 0.496 |
| NCI-H1915 | 0.404 |
| NCI-H1944 | 0.43 |
| NCI-H1975 | 0.705 |
| NCI-H1993 | 1.04 |
| NCI-H2085 | 0.962 |
| NCI-H2087 | 1.3 |
| NCI-H2126 | 0.959 |
| NCI-H2170 | 0.627 |
| NCI-H2347 | 0.665 |
| NCI-H2405 | 0.632 |
| NCI-H3122 | 0.908 |
| PC-3 [JPC-3] | 0.866 |
| PC-14 | 0.355 |
| RERF-LC-KJ | 0.883 |

Same assay, conditions: first compound 8 µM

| Cell Line | relative viability |
| --- | --- |
| NCI-H647 | 0.156 |
| NCI-H650 | 0.927 |
| NCI-H727 | 0.676 |
| NCI-H838 | 0.801 |
| NCI-H1355 | 0.696 |
| NCI-H1437 | 0.997 |
| NCI-H1651 | 0.184 |
| NCI-H1666 | 0.835 |
| NCI-H1734 | 0.333 |
| NCI-H1755 | 0.399 |
| NCI-H1792 | 0.254 |
| NCI-H1915 | 0.245 |
| NCI-H1944 | 0.383 |
| NCI-H1975 | 0.765 |
| NCI-H1993 | 0.824 |
| NCI-H2085 | 0.881 |
| NCI-H2087 | 0.959 |
| NCI-H2126 | 0.948 |
| NCI-H2170 | 0.398 |
| NCI-H2347 | 0.549 |
| NCI-H2405 | 0.636 |
| NCI-H3122 | 0.559 |
| PC-3 [JPC-3] | 0.926 |
| PC-14 | 0.205 |
| RERF-LC-KJ | 1.08 |
